Results: patent US9266892B2, “Fused pyrazoles as FGFR inhibitors” (Incyte Corporation, priority 2012, dated 2016)

Tests used:
Type in all cases: biochemical
[1] = molecular target: T1, FGFR1 (Homo sapiens, UniProt P11362); assay: FGFR Enzymatic Assay (FRET peptide phosphorylation), FGFR1; settings: FGFR1 0.02 nM, ATP 210 μM
T1 construct: purchased Millipore or Invitrogen
Experimental: (§1) The inhibitor potency of the Example compounds was measured in an enzyme assay that measures peptide phosphorylation using FRET measurements to detect product formation. Inhibitors were serially diluted in DMSO and a volume of 0.5 μL was transferred to the wells of a 384-well plate. For FGFR3, a 10 μL volume of FGFR3 enzyme (Millipore) diluted in assay buffer (50 mM HEPES, 10 mM MgCl2, 1 mM EGTA, 0.01% Tween-20, 5 mM DTT, pH 7.5) was added to the plate and pre-incubated for 5-10 minutes. Appropriate controls (enzyme blank and enzyme with no inhibitor) were included on the plate. The assay was initiated by the addition of a 10 μL solution containing biotinylated EQEDEPEGDYFEWLE peptide substrate (SEQ ID NO: 1) and ATP (final concentrations of 500 nM and 140 μM respectively) in assay buffer to the wells. The plate was incubated at 25° C. for 1 hr. The reactions were ended with the addition of 10 μL/well of quench solution (50 mM Tris, 150 mM NaCl, 0.5 mg/mL BSA, pH˜7.8, 30 mM EDTA with Perkin Elmer Lance Detection Reagents at 3.75 nM Eu-antibody PY20 and 180 nM APC-Streptavidin). The plate was allowed to equilibrate for 1 hour before scanning the wells on a PheraStar plate reader (BMG Labtech). The enzymes were purchased from Millipore or Invitrogen.
(§2) FGFR1 and FGFR2 were measured under equivalent conditions with the following changes in enzyme and ATP concentrations: FGFR1, 0.02 nM and 210 μM, respectively and FGFR2, 0.01 nM and 100 μM, respectively.
(§3) GraphPad prism3 was used to analyze the data. The IC50 values were derived by fitting the data to the equation for a sigmoidal dose-response with a variable slope. Y=Bottom+(Top−Bottom)/(1+10^((Log IC50−X)*HillSlope)) where X is the logarithm of concentration and Y is the response.

[2] = molecular target: T2, FGFR3 (Homo sapiens, UniProt P22607); assay: FGFR Enzymatic Assay (FRET peptide phosphorylation), FGFR3; settings: ATP 140 μM, 25° C. for 1 hr
T2 construct: purchased Millipore
Experimental: as §1, §3

[3] = molecular target: T3, FGFR2 (Homo sapiens, UniProt P21802); assay: FGFR Enzymatic Assay (FRET peptide phosphorylation), FGFR2; settings: FGFR2 0.01 nM, ATP 100 μM
T3 construct: purchased Millipore or Invitrogen
Experimental: as §1, §2, §3

T3 sequence (P21802 22-821): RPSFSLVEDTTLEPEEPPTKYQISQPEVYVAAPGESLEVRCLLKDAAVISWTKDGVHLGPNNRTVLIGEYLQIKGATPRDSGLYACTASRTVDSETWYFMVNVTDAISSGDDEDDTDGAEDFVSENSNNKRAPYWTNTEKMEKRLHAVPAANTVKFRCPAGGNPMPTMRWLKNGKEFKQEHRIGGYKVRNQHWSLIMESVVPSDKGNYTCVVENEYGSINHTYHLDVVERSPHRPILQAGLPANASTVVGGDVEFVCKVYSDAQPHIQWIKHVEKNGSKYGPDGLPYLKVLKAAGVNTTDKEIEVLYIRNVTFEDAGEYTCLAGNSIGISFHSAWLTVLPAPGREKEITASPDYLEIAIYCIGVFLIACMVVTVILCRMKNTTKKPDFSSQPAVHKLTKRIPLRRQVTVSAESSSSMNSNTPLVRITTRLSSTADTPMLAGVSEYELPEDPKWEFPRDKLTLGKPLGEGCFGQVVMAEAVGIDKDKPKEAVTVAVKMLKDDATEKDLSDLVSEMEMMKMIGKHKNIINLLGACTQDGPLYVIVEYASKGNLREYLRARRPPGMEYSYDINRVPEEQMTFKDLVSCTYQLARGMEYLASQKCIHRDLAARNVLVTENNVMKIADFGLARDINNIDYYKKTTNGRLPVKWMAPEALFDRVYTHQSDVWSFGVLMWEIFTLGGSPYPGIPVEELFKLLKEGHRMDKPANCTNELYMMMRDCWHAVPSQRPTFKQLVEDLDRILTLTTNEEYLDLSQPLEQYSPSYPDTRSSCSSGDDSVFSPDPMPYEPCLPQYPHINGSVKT
T2 sequence (P22607 23-806): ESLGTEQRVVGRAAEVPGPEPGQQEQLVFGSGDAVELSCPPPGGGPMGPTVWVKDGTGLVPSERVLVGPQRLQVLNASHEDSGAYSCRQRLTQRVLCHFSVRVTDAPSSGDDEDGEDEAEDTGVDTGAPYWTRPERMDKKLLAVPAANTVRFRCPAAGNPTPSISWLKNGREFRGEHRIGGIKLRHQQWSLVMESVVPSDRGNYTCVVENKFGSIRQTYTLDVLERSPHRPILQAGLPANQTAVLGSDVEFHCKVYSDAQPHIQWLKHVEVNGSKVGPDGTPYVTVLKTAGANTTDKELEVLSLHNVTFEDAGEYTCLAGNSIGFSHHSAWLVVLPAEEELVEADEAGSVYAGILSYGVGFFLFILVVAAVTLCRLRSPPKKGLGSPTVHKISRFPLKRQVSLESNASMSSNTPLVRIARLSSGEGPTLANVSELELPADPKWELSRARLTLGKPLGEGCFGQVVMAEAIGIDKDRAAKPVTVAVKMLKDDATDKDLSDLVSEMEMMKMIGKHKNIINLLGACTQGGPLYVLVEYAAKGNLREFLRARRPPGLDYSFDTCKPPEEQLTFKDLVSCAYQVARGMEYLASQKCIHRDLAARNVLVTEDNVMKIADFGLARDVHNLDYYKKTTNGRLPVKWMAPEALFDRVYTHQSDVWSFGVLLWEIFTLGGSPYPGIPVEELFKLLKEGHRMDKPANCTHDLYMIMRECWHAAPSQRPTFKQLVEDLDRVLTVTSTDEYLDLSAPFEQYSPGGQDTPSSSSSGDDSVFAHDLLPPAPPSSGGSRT
T1 sequence (P11362 22-822): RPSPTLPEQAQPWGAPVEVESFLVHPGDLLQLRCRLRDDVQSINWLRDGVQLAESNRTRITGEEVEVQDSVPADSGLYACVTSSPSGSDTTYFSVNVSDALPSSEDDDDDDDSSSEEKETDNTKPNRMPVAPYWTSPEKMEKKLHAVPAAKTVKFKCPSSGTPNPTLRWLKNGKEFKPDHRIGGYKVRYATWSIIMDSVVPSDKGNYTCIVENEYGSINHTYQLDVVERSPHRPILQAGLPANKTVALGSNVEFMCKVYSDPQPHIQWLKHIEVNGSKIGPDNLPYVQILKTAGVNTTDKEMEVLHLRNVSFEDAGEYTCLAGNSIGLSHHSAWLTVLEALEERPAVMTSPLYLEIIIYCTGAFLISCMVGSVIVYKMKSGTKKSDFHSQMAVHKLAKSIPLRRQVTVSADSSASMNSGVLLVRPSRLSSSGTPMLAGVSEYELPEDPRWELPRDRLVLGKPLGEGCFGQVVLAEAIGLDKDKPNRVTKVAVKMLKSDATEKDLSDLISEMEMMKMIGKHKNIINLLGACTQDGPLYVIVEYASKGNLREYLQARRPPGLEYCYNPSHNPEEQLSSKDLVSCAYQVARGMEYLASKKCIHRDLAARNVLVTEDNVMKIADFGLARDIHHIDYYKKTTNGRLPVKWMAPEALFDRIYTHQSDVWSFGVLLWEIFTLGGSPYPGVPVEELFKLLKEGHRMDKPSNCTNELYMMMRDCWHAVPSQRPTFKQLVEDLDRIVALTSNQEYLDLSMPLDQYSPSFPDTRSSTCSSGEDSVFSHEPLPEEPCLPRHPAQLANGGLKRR

SMILES	IC50 [1]	IC50 [2]	IC50 [3]
COc1cc(OC)c(F)c(-c2cc3[nH]nc(-c4ccc5c(c4)CC(C(=O)N(C)C)O5)c3cn2)c1F (single isomer, unassigned) [Example 83, 5-[6-(2,6-Difluoro-3,5-dimethoxyphenyl)-1H-pyrazolo[4,3-c]pyridin-3-yl]-N,N-dimethyl-2,3-dihydro-1-benzofuran-2-carboxamide]	< 100 nM	< 100 nM	< 100 nM
COc1cc(OC)c(Cl)c(-c2ncc3c(-c4ccc5c(c4)CCNC5=O)n[nH]c3n2)c1Cl [Example 8, 6-[6-(2,6-Dichloro-3,5-dimethoxyphenyl)-1H-pyrazolo[3,4-d]pyrimidin-3-yl]-3,4-dihydroisoquinolin-1(2H)-one]	< 100 nM	< 100 nM	< 100 nM
COc1cc(OC)c(Cl)c(-c2ncc3c(-c4ccc5c(c4)CC(C(=O)N(C)C)O5)n[nH]c3n2)c1Cl (stereo not drawn) [Example 1, 5-[6-(2,6-Dichloro-3,5-dimethoxyphenyl)-1H-pyrazolo[3,4-d]pyrimidin-3-yl]-N,N-dimethyl-2,3-dihydro-1-benzofuran-2-carboxamide]	< 100 nM	< 100 nM	< 100 nM
COc1cc(OC)c(F)c(-c2cc3[nH]nc(-c4ccc(N5CCN(C)CC5)cc4)c3cn2)c1F [Example 25, 6-(2,6-Difluoro-3,5-dimethoxyphenyl)-3-[4-(4-methylpiperazin-1-yl)phenyl]-1H-pyrazolo[4,3-c]pyridine]	< 100 nM	< 100 nM	< 100 nM
COc1cc(OC)c(F)c(-c2ccc3c(-c4cnn(C)c4)n[nH]c3n2)c1F [Example 72, 6-(2,6-Difluoro-3,5-dimethoxyphenyl)-3-(1-methyl-1H-pyrazol-4-yl)-1H-pyrazolo[3,4-b]pyridine]	< 100 nM	< 100 nM	< 100 nM
COc1cc(OC)c(F)c(-c2ncc3c(-c4ccc5c(c4)CN([C@H]4CC[C@H](O)CC4)C5=O)n[nH]c3n2)c1F [Example 15, 5-[6-(2,6-Difluoro-3,5-dimethoxyphenyl)-1H-pyrazolo[3,4-d]pyrimidin-3-yl]-2-(trans-4-hydroxycyclohexyl)isoindolin-1-one]	< 100 nM	< 100 nM	< 100 nM

The remaining lines, values ahead:

IC50 [1]	IC50 [2]	IC50 [3]	SMILES
< 100 nM	< 100 nM	< 100 nM	COc1cc(OC)c(F)c(-c2cc3[nH]nc(-c4ccc5c(c4)CN(CCC4CCCN4C)C5=O)c3cn2)c1F (stereo not drawn) [Example 68, 5-[6-(2,6-Difluoro-3,5-dimethoxyphenyl)-1H-pyrazolo[4,3-c]pyridin-3-yl]-2-[2-(1-methylpyrrolidin-2-yl)ethyl]isoindolin-1-one]
< 100 nM	< 100 nM	< 100 nM	COc1cc(OC)c(F)c(-c2ncc3c(-c4ccc5c(c4)CN(C4CC4)C5=O)n[nH]c3n2)c1F [Example 21, 2-Cyclopropyl-5-[6-(2,6-difluoro-3,5-dimethoxyphenyl)-1H-pyrazolo[3,4-d]pyrimidin-3-yl]isoindolin-1-one]
< 100 nM	< 100 nM	< 100 nM	COc1cc(OC)c(Cl)c(-c2cc3[nH]nc(-c4ccc5c(c4)NC(=O)CO5)c3cn2)c1Cl [Example 30, 6-[6-(2,6-Dichloro-3,5-dimethoxyphenyl)-1H-pyrazolo[4,3-c]pyridin-3-yl]-2H-1,4-benzoxazin-3(4H)-one]
< 100 nM	< 100 nM	< 100 nM	COc1cc(OC)c(F)c(-c2ncc3c(-c4ccc5c(c4)CN(CC(C)O)C5=O)n[nH]c3n2)c1F (stereo not drawn) [Example 82, 5-[6-(2,6-Difluoro-3,5-dimethoxyphenyl)-1H-pyrazolo[3,4-d]pyrimidin-3-yl]-2-(2-hydroxypropyl)isoindolin-1-one]
< 100 nM	< 100 nM	< 100 nM	COc1cc(OC)c(Cl)c(-c2cnc3c(-c4cnn(CCCO)c4)n[nH]c3c2)c1Cl [Example 71, 3-{4-[6-(2,6-Dichloro-3,5-dimethoxyphenyl)-1H-pyrazolo[4,3-b]pyridin-3-yl]-1H-pyrazol-1-yl}propan-1-ol]
